Source: ChEMBL document CHEMBL3351860, “Synthesis and SAR of thieno[3,2-b]pyridinyl urea derivatives as urotensin-II receptor antagonists” (Bioorg Med Chem Lett, 2014)

How the values were obtained:
[1] = target: T1, Urotensin-2 receptor (Homo sapiens) (UniProt Q9UKP6); test: Displacement of europium-labeled urotensin-II from human urotensin-2 receptor expressed in HEK293 cells at 10 uM by TRF assay; assay type: cell-based
T1 sequence (whole entry): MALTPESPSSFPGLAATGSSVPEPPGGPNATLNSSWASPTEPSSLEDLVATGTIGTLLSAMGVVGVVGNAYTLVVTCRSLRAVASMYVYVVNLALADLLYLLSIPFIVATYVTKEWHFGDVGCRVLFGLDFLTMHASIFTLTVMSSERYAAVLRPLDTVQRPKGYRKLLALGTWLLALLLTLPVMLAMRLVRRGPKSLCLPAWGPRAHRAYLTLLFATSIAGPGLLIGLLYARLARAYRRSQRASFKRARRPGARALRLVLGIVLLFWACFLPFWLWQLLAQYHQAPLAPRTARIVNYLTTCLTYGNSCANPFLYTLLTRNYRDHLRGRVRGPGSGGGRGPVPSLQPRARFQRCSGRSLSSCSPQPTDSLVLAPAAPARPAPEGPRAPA

Urotensin-2 receptor = target: T2, Urotensin-2 receptor (Homo sapiens, UniProt Q9UKP6); test: Displacement of europium-labeled urotensin-II from human urotensin-2 receptor expressed in HEK293 cells by TRF assay; assay type: cell-based
T2 sequence (Q9UKP6 whole entry): T1 sequence (whole entry)

[2] = Metabolic stability in human liver microsomes after 30 mins; assay type: ADME; settings: read-out: Stability
[3] = Metabolic stability in rat liver microsomes after 30 mins; assay type: ADME; settings: read-out: Stability
CYP3A4 = CYP3A4 (Homo sapiens, UniProt P08684); test: Inhibition of CYP3A4 (unknown origin) at 10 uM; assay type: ADME
[4] = target: Voltage-gated inwardly rectifying potassium channel KCNH2 (Homo sapiens, UniProt Q12809); test: Inhibition of human ERG by patch clam assay
[5] = Permeability of the compound by PAMPA assay; assay type: ADME; settings: read-out: permeability

CYP3A4, sequence (P08684 whole entry): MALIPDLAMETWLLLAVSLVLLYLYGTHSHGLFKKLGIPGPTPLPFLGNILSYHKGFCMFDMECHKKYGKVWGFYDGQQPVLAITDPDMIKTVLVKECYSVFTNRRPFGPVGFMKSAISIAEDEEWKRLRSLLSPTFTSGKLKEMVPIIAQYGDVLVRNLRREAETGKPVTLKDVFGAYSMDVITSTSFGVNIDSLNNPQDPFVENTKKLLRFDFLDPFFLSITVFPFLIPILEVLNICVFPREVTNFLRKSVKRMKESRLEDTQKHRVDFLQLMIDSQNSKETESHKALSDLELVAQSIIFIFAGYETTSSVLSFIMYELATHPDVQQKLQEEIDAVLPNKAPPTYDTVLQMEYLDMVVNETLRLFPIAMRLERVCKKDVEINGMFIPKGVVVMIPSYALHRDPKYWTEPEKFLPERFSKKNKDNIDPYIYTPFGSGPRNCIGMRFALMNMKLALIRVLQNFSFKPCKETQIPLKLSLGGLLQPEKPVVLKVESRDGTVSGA
Voltage-gated inwardly rectifying potassium channel KCNH2, sequence (Q12809 whole entry): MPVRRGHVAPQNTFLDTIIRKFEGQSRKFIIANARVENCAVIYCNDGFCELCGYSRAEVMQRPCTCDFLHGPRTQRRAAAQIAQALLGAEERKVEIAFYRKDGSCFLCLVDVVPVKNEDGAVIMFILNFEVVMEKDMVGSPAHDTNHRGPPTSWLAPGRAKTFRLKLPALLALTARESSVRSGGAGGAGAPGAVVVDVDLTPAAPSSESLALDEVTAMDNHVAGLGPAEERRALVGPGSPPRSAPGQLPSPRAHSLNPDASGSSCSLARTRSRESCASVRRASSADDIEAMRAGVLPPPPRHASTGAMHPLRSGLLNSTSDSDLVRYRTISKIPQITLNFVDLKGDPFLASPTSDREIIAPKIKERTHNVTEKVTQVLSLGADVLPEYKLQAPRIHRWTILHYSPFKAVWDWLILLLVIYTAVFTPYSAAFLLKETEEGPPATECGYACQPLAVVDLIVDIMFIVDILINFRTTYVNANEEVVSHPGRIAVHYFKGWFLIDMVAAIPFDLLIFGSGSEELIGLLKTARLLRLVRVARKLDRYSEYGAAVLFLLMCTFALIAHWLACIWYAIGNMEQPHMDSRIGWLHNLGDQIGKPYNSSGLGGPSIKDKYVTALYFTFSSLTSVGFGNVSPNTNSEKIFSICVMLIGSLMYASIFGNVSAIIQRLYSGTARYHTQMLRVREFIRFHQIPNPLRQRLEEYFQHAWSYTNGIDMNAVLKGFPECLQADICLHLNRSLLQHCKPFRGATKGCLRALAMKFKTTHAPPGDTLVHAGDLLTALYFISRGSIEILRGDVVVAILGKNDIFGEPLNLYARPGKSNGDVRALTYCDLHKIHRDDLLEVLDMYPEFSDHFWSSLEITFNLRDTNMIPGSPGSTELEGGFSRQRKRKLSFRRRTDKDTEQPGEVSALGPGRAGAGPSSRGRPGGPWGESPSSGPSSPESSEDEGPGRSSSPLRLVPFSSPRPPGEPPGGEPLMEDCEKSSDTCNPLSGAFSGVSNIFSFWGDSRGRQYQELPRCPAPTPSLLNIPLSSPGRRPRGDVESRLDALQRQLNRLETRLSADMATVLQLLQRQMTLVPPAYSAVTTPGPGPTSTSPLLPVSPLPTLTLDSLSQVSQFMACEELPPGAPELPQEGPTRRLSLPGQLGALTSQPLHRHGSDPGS

Compound | IC50 (Urotensin-2 receptor) | also measured
O=C(NCCN1CCC(O)(Cc2ccccc2)CC1)Nc1cc(-c2ccccc2)nc2ccsc12 | – | inhibition [1]: 25.4%
O=C(NCCN1CCC(O)(Cc2ccccc2)CC1)Nc1ccnc2cc(-c3ccccc3)sc12 | – | inhibition [1]: 47.3%
O=C(NCCN1CCC(O)(Cc2ccccc2)CC1)Nc1ccnc2ccoc12 | 450 nM | –
Cn1cnc2c(NC(=O)NCCN3CCC(O)(Cc4ccccc4)CC3)ccnc21 | 2140 nM | –
O=C(NCCN1CCC(O)(Cc2ccccc2)CC1)Nc1ccnc2c(Br)csc12 | 3220 nM | –
O=C(NCCN1CCC(O)(Cc2ccccc2)CC1)Nc1ccnc2sccc12 | 930 nM | –
O=C(NCCN1CCC(O)(Cc2ccccc2)CC1)Nc1cc(Cl)nc2ccsc12 | – | inhibition [1]: 25.6%
Cc1csc2c(NC(=O)NCCN3CCC(O)(Cc4ccccc4)CC3)ccnc12 | 1230 nM | –
Cc1cc(NC(=O)NCCN2CCC(O)(Cc3ccccc3)CC2)c2cnn(C)c2n1 | 220 nM | –
Cn1ccc2nccc(NC(=O)NCCN3CCC(O)(Cc4ccccc4)CC3)c21 | 600 nM | –

More lines, main results first:

IC50 (Urotensin-2 receptor) | Compound | also measured
78 nM | Cc1cc2nccc(NC(=O)NCCN3CCC(O)(Cc4ccccc4)CC3)c2s1 | –
36 nM | O=C(NCCN1CCC(O)(Cc2ccccc2)CC1)Nc1ccnc2ccsc12 | –
13 nM | O=C(NCCN1CCC(O)(Cc2ccc(F)cc2)CC1)Nc1ccnc2ccsc12 | remaining at 0.5 h [2]: 52%; remaining at 0.5 h [3]: 100%; inhibition at 10 µM (CYP3A4): > 10%; IC50 [4]: 5000 nM; Papp [5]: 0.027 ×10⁻⁶ cm/s
190 nM | Cc1ccc(CC2(O)CCN(CCNC(=O)Nc3ccnc4ccsc34)CC2)cc1 | –
20 nM | Cc1ccccc1CC1(O)CCN(CCNC(=O)Nc2ccnc3ccsc23)CC1 | –
20 nM | O=C(NCCN1CCC(O)(Cc2ccccc2Br)CC1)Nc1ccnc2ccsc12 | –
42 nM | O=C(NCCN1CCC(O)(Cc2cccc(Br)c2)CC1)Nc1ccnc2ccsc12 | –
160 nM | Cn1ccc2c(NC(=O)NCCN3CCC(O)(Cc4ccccc4)CC3)ccnc21 | –
140 nM | Cc1cccc(CC2(O)CCN(CCNC(=O)Nc3ccnc4ccsc34)CC2)c1 | –
60 nM | CCc1cc(NC(=O)NCCN2CCC(O)(Cc3ccccc3)CC2)c2sccc2n1 | –
26 nM | Cc1cc(NC(=O)NCCN2CCC(O)(Cc3ccccc3)CC2)c2sccc2n1 | –
